According to US11673889B2, “Substituted imidazo[4,5-c][1,8]naphthyridines as phosphodiesterase inhibitors” (Nanjing Zhengxiang Pharmaceuticals Co., Ltd., priority 2019, dated 2023):

What was measured:
ENPP-1, MDA-MB-231 cells = biological target: T1, ENPP-1, MDA-MB-231 cells (Homo sapiens, UniProt P22413); test: cell-based; details: for inhibition at 20 µM: MDA-MB-231, read-out: % Inhibition (at 20 μM)
T1 sequence (P22413 1-925): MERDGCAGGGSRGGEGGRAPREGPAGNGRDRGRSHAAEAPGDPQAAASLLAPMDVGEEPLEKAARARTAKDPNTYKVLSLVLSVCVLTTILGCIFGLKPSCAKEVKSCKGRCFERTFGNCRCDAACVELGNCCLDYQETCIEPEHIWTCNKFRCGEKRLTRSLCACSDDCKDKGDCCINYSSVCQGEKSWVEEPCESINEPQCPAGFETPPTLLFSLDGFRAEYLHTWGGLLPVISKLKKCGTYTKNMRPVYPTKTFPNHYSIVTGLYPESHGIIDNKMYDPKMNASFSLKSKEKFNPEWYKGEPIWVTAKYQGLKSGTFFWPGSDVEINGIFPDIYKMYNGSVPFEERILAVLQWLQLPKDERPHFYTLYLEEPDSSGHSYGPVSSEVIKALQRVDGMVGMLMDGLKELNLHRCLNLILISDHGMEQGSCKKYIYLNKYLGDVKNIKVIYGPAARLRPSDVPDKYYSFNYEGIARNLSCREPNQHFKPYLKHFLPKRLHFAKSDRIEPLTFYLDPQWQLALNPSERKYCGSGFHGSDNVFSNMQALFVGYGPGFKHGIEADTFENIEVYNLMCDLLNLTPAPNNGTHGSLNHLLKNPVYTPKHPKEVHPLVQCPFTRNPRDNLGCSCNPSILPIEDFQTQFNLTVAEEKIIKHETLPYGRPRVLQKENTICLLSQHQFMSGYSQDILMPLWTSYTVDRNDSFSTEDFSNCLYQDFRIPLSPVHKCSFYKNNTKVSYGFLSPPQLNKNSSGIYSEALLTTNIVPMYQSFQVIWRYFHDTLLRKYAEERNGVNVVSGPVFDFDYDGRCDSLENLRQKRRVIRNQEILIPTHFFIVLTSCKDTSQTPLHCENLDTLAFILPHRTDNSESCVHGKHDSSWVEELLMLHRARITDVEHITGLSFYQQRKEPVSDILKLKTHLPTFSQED

human soluble ENPP1 [1] = biological target: T2, human soluble ENPP1 (Homo sapiens, UniProt P22413); test: ENPP1 activity assay using p-Nitrophenyl-5′-TMP as a substrate; format: biochemical
T2 construct: 20 ng of human soluble ENPP1
T2 sequence (P22413 103-925 limits assumed): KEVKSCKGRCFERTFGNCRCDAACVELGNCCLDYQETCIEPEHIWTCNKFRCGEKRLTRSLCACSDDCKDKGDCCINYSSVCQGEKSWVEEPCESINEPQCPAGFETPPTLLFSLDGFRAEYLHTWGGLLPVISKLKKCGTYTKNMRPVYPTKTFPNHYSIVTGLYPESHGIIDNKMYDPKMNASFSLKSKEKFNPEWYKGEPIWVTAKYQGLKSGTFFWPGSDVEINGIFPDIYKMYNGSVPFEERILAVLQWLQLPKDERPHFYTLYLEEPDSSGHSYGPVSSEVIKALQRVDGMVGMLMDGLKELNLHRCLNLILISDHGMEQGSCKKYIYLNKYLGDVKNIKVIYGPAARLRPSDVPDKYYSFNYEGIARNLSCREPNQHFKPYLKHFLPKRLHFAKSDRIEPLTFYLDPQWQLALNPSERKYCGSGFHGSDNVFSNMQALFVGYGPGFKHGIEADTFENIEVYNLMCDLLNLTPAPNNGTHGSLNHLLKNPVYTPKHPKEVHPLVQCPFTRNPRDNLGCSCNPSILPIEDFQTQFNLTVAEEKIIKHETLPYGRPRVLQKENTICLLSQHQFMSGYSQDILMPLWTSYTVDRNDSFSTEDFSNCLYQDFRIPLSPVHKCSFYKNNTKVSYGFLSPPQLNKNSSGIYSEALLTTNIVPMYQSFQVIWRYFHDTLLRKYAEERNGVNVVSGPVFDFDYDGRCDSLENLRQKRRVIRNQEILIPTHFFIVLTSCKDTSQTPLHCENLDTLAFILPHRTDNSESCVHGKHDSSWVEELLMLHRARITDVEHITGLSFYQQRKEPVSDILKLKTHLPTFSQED
How it was run: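 Human soluble ENPP1 (20 ng) was preincubated with inhibitor for 30 min at room temperature. TMP-pNP was then added as a 2 mM […] solution and incubated 1 h at RT, with p-nitrophenol formation read by OD. IC50 came from four-parameter fits of % inhibition relative to no-inhibitor and blank controls.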

human soluble ENPP1 [2] = biological target: T2, human soluble ENPP1; test: ENPP1 activity assay using p-Nitrophenyl-5′-AMP as a substrate; format: biochemical
How it was run: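 Human soluble ENPP1 (35 ng) preincubated with inhibitor 30 min at RT, then p-nitrophenyl-5′-AMP added (3 mM solution, 2× final) and incubated 1 h at RT. p-Nitrophenolate release read at OD 405 nm; % inhibition vs no-inhibitor and blank controls, IC50 from four-parameter fit.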

Pharmacokinetics in mice = format: in vivo; details: mouse, plasma, male CD-1 mice; for AUC / clearance / half-life / Vd: 1 mg/kg, iv; for Vd: read-out: Vdss; for bioavailability: oral gavage (PO) at 5 mg/kg vs IV 1 mg/kg
Experimental: A dosing solution of test sample was prepared at 1.0 mg/mL in 5% DMSO/40% PEG400/55% water and administered to male CD-1 mice (4-6 weeks old, 20-30 grams, 3 animals each group) via intravenous (IV) bolus at 1 mg/kg and by oral gavage (PO) at 5 mg/kg. Blood samples (˜0.03 mL each time point) were collected via the jugular vein into tubes containing sodium heparin as the anticoagulant at 0.033, 0.083, 0.25, 0.5, 1, 2, 4, 8 and 24 hours post dose for IV administration and 0.083, 0.25, 0.5, 1, 2, 4, 8 and 24 hours post dose for PO administration. The blood samples were then centrifuged for 5 minutes in a centrifuge refrigerated at 4° C. The resultant plasma samples were analyzed using LC/MS/MS to determine concentrations of test sample. Non-compartmental model with WinNonlin (Phoenix™, version 8.0) software was used to calculate pharmacokinetic (PK) parameters.

| SMILES | IC50 (ENPP-1, MDA-MB-231 cells) | inhibition at 20 µM (ENPP-1, MDA-MB-231 cells) | IC50 (human soluble ENPP1 [1]) | IC50 (human soluble ENPP1 [2]) | AUC (Pharmacokinetics in mice) | clearance (Pharmacokinetics in mice) | half-life (Pharmacokinetics in mice) | Vd (Pharmacokinetics in mice) | bioavailability (Pharmacokinetics in mice) |
| --- | --- | --- | --- | --- | --- | --- | --- | --- | --- |
| COc1ccc2c(ncc3nc(CN4CCOCC4)n(Cc4ccc(S(N)(=O)=O)c(F)c4)c32)n1 [Compound 80, 2-fluoro-4-((7-methoxy-2-(morpholinomethyl)-1H-imidazo[4,5-c][1,8]naphthyridin-1-yl)methyl)benzenesulfonamide] | 1800 nM | 75% | 1.8 nM | 6.4 nM | 0.158 µg·h/mL | 6.42 L/h/kg | 0.13 h | 1 L/kg | – |
| COc1ccc2c(ncc3nc(C)n(Cc4ccc(S(N)(=O)=O)cn4)c32)n1 [Compound 72, 6-((7-methoxy-2-methyl-1H-imidazo[4,5-c][1,8]naphthyridin-1-yl)methyl)pyridine-3-sulfonamide] | 340 nM | 81% | 0.58 nM | 1.2 nM | 0.303 µg·h/mL | 3.36 L/h/kg | 1.4 h | 2.9 L/kg | – |
| COc1ccc2c(ncc3nnn(Cc4ccc(S(N)(=O)=O)cn4)c32)n1 [Compound 119, 6-((7-methoxy-1H-[1,2,3]triazolo[4,5-c][1,8]naphthyridin-1-yl)methyl)pyridine-3-sulfonamide] | 120 nM | 83% | 0.7 nM | 1.1 nM | 0.301 µg·h/mL | 3.36 L/h/kg | 1.4 h | 4.5 L/kg | – |
| COc1ccc2c(ncc3[nH]c(=O)n(Cc4ccc(S(N)(=O)=O)cc4F)c32)n1 [Compound 102, 3-fluoro-4-((7-methoxy-2-oxo-2,3-dihydro-1H-imidazo[4,5-c][1,8]naphthyridin-1-yl)methyl)benzenesulfonamide] | 430 nM | 86% | 0.51 nM | 0.74 nM | 0.657 µg·h/mL | 1.56 L/h/kg | 5.1 h | 5.2 L/kg | 8.4% |

Further compounds by falling IC50 (ENPP-1, MDA-MB-231 cells), results first:

| IC50 (ENPP-1, MDA-MB-231 cells) | inhibition at 20 µM (ENPP-1, MDA-MB-231 cells) | IC50 (human soluble ENPP1 [1]) | IC50 (human soluble ENPP1 [2]) | AUC (Pharmacokinetics in mice) | clearance (Pharmacokinetics in mice) | half-life (Pharmacokinetics in mice) | Vd (Pharmacokinetics in mice) | bioavailability (Pharmacokinetics in mice) | SMILES |
| --- | --- | --- | --- | --- | --- | --- | --- | --- | --- |
| 1700 nM | 74% | 1.6 nM | 4.3 nM | 0.17 µg·h/mL | 6 L/h/kg | 0.33 h | 2 L/kg | – | COc1ccc2c(ncc3cnn(Cc4ccc(S(N)(=O)=O)c(F)c4)c32)n1 [Compound 122a, 2-fluoro-4-((7-methoxy-1H-pyrazolo[4,3-c][1,8]naphthyridin-1-yl)methyl)benzenesulfonamide] |
| 490 nM | 83% | 0.31 nM | 1.51 nM | 0.215 µg·h/mL | 4.68 L/h/kg | 2.5 h | 11 L/kg | – | COc1ccc2c(ncc3ncn([C@H](C)c4ccc(S(N)(=O)=O)cn4)c32)n1 [Compound 60, (R)-6-(1-(7-methoxy-1H-imidazo[4,5-c][1,8]naphthyridin-1-yl)ethyl)pyridine-3-sulfonamide] |
| 80 nM | 77% | 0.27 nM | 0.23 nM | 0.454 µg·h/mL | 2.22 L/h/kg | 3.9 h | 12 L/kg | 33% | COc1ccc2c(ncc3c2n(Cc2c(F)cc(S(N)(=O)=O)cc2F)c(=O)n3C)n1 [Compound 114, 3,5-difluoro-4-((7-methoxy-3-methyl-2-oxo-2,3-dihydro-1H-imidazo[4,5-c][1,8]naphthyridin-1-yl)methyl)benzenesulfonamide] |
